{"source": "paper PMC8069832", "about": "“New Amides and Phosphoramidates Containing Selenium: Studies on Their Cytotoxicity and Antioxidant Activities in Breast Cancer” (Antioxidants, 2021)", "key": {"MCF-7 [1]": {"test_system": "MCF-7", "test": "cells", "settings": "Homo sapiens, MCF7, 48 h; for activity at 10 µM: read-out: Cell growth (%) MCF-7; for CC50: read-out: LC50 MCF-7; for IC (TGI): read-out: TGI MCF-7; for GI50: read-out: GI50 MCF-7, 48 h, average ± SEM"}, "PC-3": {"test_system": "PC-3", "test": "cells", "assay_type": "cell-based", "settings": "Homo sapiens; for LC50: read-out: LC50 PC-3; for GI50: read-out: GI50 PC-3; for IC (TGI): read-out: TGI PC-3", "description": "(§1) Cell lines were provided by the European Collection of Cell Cultures (ECACC) or by the American Type Culture Collection (ATCC). Seven cell lines were used: MCF-7 (breast adenocarnicoma), 184B5 (nonmalignant, mammary gland derived), CCRF-CEM (lymphoblastic leukemia), HT-29 (colon carcinoma), HTB-54 (lung carcinoma), BEAS-2B (nonmalignant, derived from the bronchial epithelium) and PC-3 (prostate carcinoma). MCF-7, CCRF-CEM, HT-29, HTB-54, BEAS-2B and PC-3 cell lines were grown in RPMI medium (Gibco) supplemented with 10% fetal bovine serum (FBS; Gibco), 100 units/mL penicillin and […] streptomycin (Gibco). 184B5 cells were grown in DMEM/F12 medium supplemented with 5% FBS, 1 × ITS (Lonza), 100 nM hydrocortisone (Aldich), 2 mM sodium pyruvate (Lonza), 20 ng/mL EGF (Sigma-Aldrich), 0.3 nM trans-retinoic acid (Sigma-Aldrich), 100 units/mL penicillin and […] streptomycin. Cells were maintained at 37 °C and 5% CO2.\n(§2) The cytotoxic effect of each substance was tested by the MTT method. Each compound was initially dissolved in DMSO at a concentration of 0.01 M, and serial dilutions were prepared with nonsupplemented medium. The cytotoxic effect of each compound was tested at 50 and 10 µM as a first screening. […]\n(§3) A total of 1 × 10^4 cells/well in 96-well plates were treated with increasing concentrations of the corresponding compounds for 48 h at 37 °C in a humidified atmosphere containing 5% CO2. Then, cells were incubated with 50 µL of MTT (2 mg/mL stock) for 4 h. The medium was then removed by aspiration, and the formazan crystals were dissolved in […] of DMSO. […] Data were obtained from at least 3 independent experiments performed in quadruplicate. The standard error of the means (SEM) for the cytotoxic parameters was calculated applying the standard deviation formula to the mean values of each parameter for the three independent experiments performed.\n(§4) . Cisplatin was used as a standard drug. […]. […] The presence of electron-withdrawing groups (-NO2, -CF3, -Cl) in the phenyl ring favored the cytotoxic activity in the amides, but in the phosphoramidates, the best results were obtained for aliphatic chains methoxy (II.1b, II.2b) and ethoxy (II.1d, II.2d). […]."}, "HTB-54": {"test_system": "HTB-54", "test": "cells", "assay_type": "cell-based", "settings": "Homo sapiens; for CC50: read-out: LC50 HTB54; for GI50: read-out: GI50 HTB54; for IC (TGI): read-out: TGI HTB54", "description": "as §1, §2, §3, §4"}, "[2]": {"test": "MTT cytotoxicity in nonmalignant bronchial epithelium cells", "assay_type": "cell-based", "settings": "human", "description": "as §1, §2, §3, §4\n(§5) The lack of selectivity toward cancerous cells is one of the major issues during the discovery and development of new anticancer agents. Therefore, we evaluated the cytotoxic activity of our compounds against two cell lines derived from nonmalignant breast tissue (184B5) and no malignant bronchial epithelium (BEAS-2B) (Table 2). […]."}, "BEAS-2B": {"test_system": "BEAS-2B", "test": "MTT cytotoxicity in nonmalignant bronchial epithelium cells", "assay_type": "cell-based", "settings": "for GI50 / IC (TGI): Homo sapiens, BEAS-2B, 48 h; for GI50: read-out: GI50 BEAS-2B; for IC (TGI): read-out: TGI BEAS-2B; for Selectivity index (SI) = GI50 (BEAS-2B)/GI50 (HTB-54): lung", "description": "as §1, §2, §3, §4, §5"}, "MCF-7 [3]": {"test_system": "MCF-7", "settings": "read-out: GI50 MCF-7; 48 h, average ± SEM"}, "[4]": {"test": "DPPH radical scavenging assay", "settings": "0.03 mg/mL, after 30 min", "description": "The DPPH (1,1-diphenyl-2-picrylhydrazyl radical) assay measures the hydrogen donation ability of the antioxidant to convert the stable DPPH free radical into 1,1-diphenyl-2-(2,4,6-trinitrophenyl)-hydrazine. After radical reaction with the compounds, a decrease in the absorbance was detected at 517 nm, which is accompanied by a change of color from violet to light-yellow. The target compounds were dissolved in methanol to make 1 mg/mL stock solutions, which were diluted to five concentrations as test samples. Ascorbic acid was used as a standard, and the experiment was carried out on 96-well plates. The DPPH solution was prepared at a 100 µM concentration. For each test, 100 µL of DPPH solution was added to 100 µL of methanolic solution containing the tested derivatives, and the absorbance was determined at different time points. All the measurements were carried out in triplicate. Results were expressed as the percentage of the radical scavenged, calculated using the following formula:(1) % DPPH radical scavenging=Acontrol − Asample/Acontrol × 100 where Acontrol refers to the absorbance of the negative control, and Asample refers to the absorbance of the tested compounds. Results are expressed as a percentage of DPPH radical scavenged ± SEM.\n. Ascorbic acid and Trolox were used as radical scavenger gold standards. […]. No correlation was found for either structure–radical scavenging activity or antitumor–radical scavenging activity, except for compound I.2f, one of the selected cytotoxic agents. To further confirm this antioxidant activity, three compounds (I.1e, I.1g and I.2i) were also evaluated as DPPH radical scavengers at a lower concentration of 0.003 mg/mL (Figure 3B)."}, "[5]": {"settings": "nonmalignant cells, 48 h, read-out: LC50 BEAS-2B"}}, "note": "Where two headings read alike, the source gives them in different places.", "data": [{"compound": "O=C(Nc1ccc([Se][Se]c2ccc(NC(=O)c3ccc(C(F)(F)F)cc3)cc2)cc1)c1ccc(C(F)(F)F)cc1", "note": "[I.1f]", "values": [{"measurement": "activity at 10 µM", "setting": "MCF-7 [1]", "result": 9.1, "unit": "%"}, {"measurement": "CC50", "setting": "MCF-7 [1]", "result": "54.6 ± 0.7", "unit": "µM"}, {"measurement": "IC (TGI)", "setting": "MCF-7 [1]", "result": "13 ± 0.3", "unit": "µM"}, {"measurement": "LC50", "setting": "PC-3; PC-3, 48 h", "result": "65 ± 0.6", "unit": "µM"}, {"measurement": "GI50", "setting": "PC-3; PC-3, 48 h, average ± SEM", "result": "1200 ± 1500", "unit": "nM"}, {"measurement": "IC (TGI)", "setting": "PC-3; PC-3, 48 h, average ± SEM", "result": "32.9 ± 3.1", "unit": "µM"}, {"measurement": "CC50", "setting": "HTB-54; HTB-54, 48 h", "result": "75.4 ± 1.7", "unit": "µM"}, {"measurement": "GI50", "setting": "HTB-54; HTB-54, 48 h, average ± SEM", "result": "25.1 ± 3.1", "unit": "µM"}, {"measurement": "IC (TGI)", "setting": "HTB-54; HTB-54, 48 h, average ± SEM", "result": "50.2 ± 2.4", "unit": "µM"}, {"measurement": "LC50 (50% lethal concentration) at 48 h", "setting": "[2]", "result": 72.9, "unit": "µM"}, {"measurement": "GI50", "setting": "BEAS-2B; nonmalignant cells", "result": 10.7, "unit": "µM"}, {"measurement": "IC (TGI)", "setting": "BEAS-2B; nonmalignant cells", "result": 41.8, "unit": "µM"}, {"measurement": "Selectivity index (SI) = GI50 (BEAS-2B)/GI50 (HTB-54)", "setting": "BEAS-2B", "result": 0.42}]}, {"compound": "CCOP(=O)(Nc1ccc([Se]C#N)cc1)OCC", "note": "[II.2d]", "values": [{"measurement": "activity at 10 µM", "setting": "MCF-7 [1]", "result": -17.2, "unit": "%"}, {"measurement": "GI50", "setting": "MCF-7 [1]", "result": "< 1000", "unit": "nM"}, {"measurement": "CC50", "setting": "MCF-7 [1]", "result": "8.4 ± 0.1", "unit": "µM"}, {"measurement": "IC (TGI)", "setting": "MCF-7 [1]", "result": "4.1 ± 0.1", "unit": "µM"}, {"measurement": "GI50", "setting": "MCF-7 [3]", "result": "900 ± 100", "unit": "nM"}, {"measurement": "GI50", "setting": "PC-3; PC-3, 48 h", "result": "1900 ± 100", "unit": "nM"}, {"measurement": "LC50", "setting": "PC-3; PC-3, 48 h", "result": "99.9 ± 9.5", "unit": "µM"}, {"measurement": "IC (TGI)", "setting": "PC-3; PC-3, 48 h", "result": "4.4 ± 0.1", "unit": "µM"}, {"measurement": "GI50", "setting": "HTB-54; HTB-54, 48 h", "result": "1.6 ± 0.4", "unit": "µM"}, {"measurement": "CC50", "setting": "HTB-54; HTB-54, 48 h", "result": "4.8 ± 0.2", "unit": "µM"}, {"measurement": "IC (TGI)", "setting": "HTB-54; HTB-54, 48 h", "result": "3.2 ± 0.3", "unit": "µM"}, {"measurement": "LC50 (50% lethal concentration) at 48 h", "setting": "[2]; [5]", "result": 8.3, "unit": "µM"}, {"measurement": "GI50", "setting": "BEAS-2B", "result": 4.65, "unit": "µM"}, {"measurement": "IC (TGI)", "setting": "BEAS-2B", "result": 6.59, "unit": "µM"}, {"measurement": "Selectivity index (SI) = GI50 (BEAS-2B)/GI50 (HTB-54)", "setting": "BEAS-2B", "result": 2.85}]}, {"compound": "N#C[Se]c1ccc(NC(=O)c2ccc(C(F)(F)F)cc2)cc1", "note": "[I.2f]", "values": [{"measurement": "activity at 10 µM", "setting": "MCF-7 [1]", "result": 44.8, "unit": "%"}, {"measurement": "GI50", "setting": "MCF-7 [1]", "result": "< 1000", "unit": "nM"}, {"measurement": "CC50", "setting": "MCF-7 [1]", "result": "42.2 ± 0.8", "unit": "µM"}, {"measurement": "IC (TGI)", "setting": "MCF-7 [1]", "result": "6.2 ± 0.4", "unit": "µM"}, {"measurement": "DPPH activity inhibition", "setting": "[4]", "result": "greater than 35%"}, {"measurement": "GI50", "setting": "MCF-7 [3]", "result": 900, "unit": "nM"}, {"measurement": "GI50", "setting": "PC-3; PC-3, 48 h, average ± SEM", "result": "28500 ± 700", "unit": "nM"}, {"measurement": "LC50", "setting": "PC-3; PC-3, 48 h, average ± SEM", "result": "77.7 ± 0.6", "unit": "µM"}, {"measurement": "IC (TGI)", "setting": "PC-3; PC-3, 48 h, average ± SEM", "result": "53.1 ± 0.6", "unit": "µM"}, {"measurement": "GI50", "setting": "HTB-54; HTB-54, 48 h, average ± SEM", "result": "29.8 ± 1.5", "unit": "µM"}, {"measurement": "CC50", "setting": "HTB-54; HTB-54, 48 h, average ± SEM", "result": "84.4 ± 5.2", "unit": "µM"}, {"measurement": "IC (TGI)", "setting": "HTB-54; HTB-54, 48 h, average ± SEM", "result": "57.1 ± 3.3", "unit": "µM"}, {"measurement": "LC50 (50% lethal concentration)", "setting": "[2]; [5]", "result": 73.2, "unit": "µM"}, {"measurement": "GI50", "setting": "BEAS-2B; nonmalignant cells", "result": 20.8, "unit": "µM"}, {"measurement": "IC (TGI)", "setting": "BEAS-2B; nonmalignant cells", "result": 47, "unit": "µM"}, {"measurement": "Selectivity index (SI) = GI50 (BEAS-2B)/GI50 (HTB-54)", "setting": "BEAS-2B", "result": 0.70}]}]}
